From patent US8853359B2, “Endokinin C/D-derived peptides” (University of Miyazaki, priority 2009, dated 2014)
Ends that are not written are not given here.

Tests used:
[1] = test system: substance P-induced scratching behavior; experiment: substance P-induced scratching behavior after intrathecal pre-administration of test peptide; type: in vivo, rat
Protocol: In Example 1, 10^−3M (10 nmol/10 μl) EKC/D or D-EKC/D (1), (2) or (3) was administered to intrathecally catheterized rats via catheters. After the predetermined time periods denoted on the horizontal axis in FIG. 1, the numbers of scratching events (scratching behavior) induced by intrathecal administration of 10^−3M (10 nmol/10 μl) substance P (hereafter, referred to as “SP”) were determined. Here, the expression “10^−3M (10 nmol/10 μl) EKC/D or D-EKC/D (1), (2), or (3) was administered” refers to a situation in which 10 μl in total of a solution (that is, 10^−3M solution) containing 10 nmol of EKC/D or D-EKC/D (1), (2), or (3) was all administered. The expression, “ . . . administration of 10^−3M substance P (10 nmol/10 μl)” refers to a situation in which 10 μl in total of a solution (that is, 10^−3M solution) containing 10 nmol of the substance was all administered. The same similarly applies below.
Meanwhile, saline (10 μl) was intrathecally administered to intrathecally catheterized rats via catheters and then, after 30 minutes, 10^−3M SP (10 nmol/10 μl) was intrathecally administered to the rats. The number of the thus induced scratching events was determined to be the number of scratching events in the control group. The control group is denoted with saline-4-SP in FIG. 1.
The vertical axis of the graph in FIG. 1 indicates changes in the numbers of scratching events (represented by relative values) due to administration of 10^−3M EKC/D or D-EKC/D (1), (2), or (3) when the number of scratching events (of untreated rats in a control group) induced by intrathecal administration of 10^−3M substance P was determined to be 100%. Meanwhile, the horizontal axis indicates the intervals between the administration of EKC/D, D-EKC/D (1), (2), or (3) and 10^−3M substance P. […]
The test was conducted with procedures similar to those in Example 1, except for 4 hours of interval between the administration of each test peptide and the administration of substance P. The concentration of each test peptide and that of substance P for administration were determined to be 10^−3M (10 nmol/10 μl), similarly to Example 1. The number of scratching events in the control group was determined with procedures similar to those in Example 1, such that substance P was administered at 30 minutes after administration of saline (10 μl) and then the number was determined.

[2] = test system: carrageenan-induced inflammation; experiment: carrageenan-induced increase in paw size, EKC/D injected 1 hour after carrageenan; type: in vivo, rat
Protocol: The vertical axis of the graph in FIG. 4 indicates increases (%) in paw size and the horizontal axis indicates the time after administration of saline (100 μl: saline) or EKC/D with “minutes,” thereby showing the time course changes of anti-inflammatory effects of EKC/D administration on carrageenan-induced inflammation. The paw size before carrageenan administration was determined to be 100%. Paw size was increased by about 50% (saline) as measured using a paw size meter at 1 hour after carrageenan injection. This state continued for about 60 minutes (saline). […] When 10^−3M EKC/D (100 nmol/100 μl) was injected, paw size had decreased to about 40% at 10 minutes after, to about 20% at 30 minutes after, and to about 40% at 50 minutes after injection.

[3] = test system: carrageenan-induced thermal hyperalgesia; experiment: carrageenan-induced thermal hyperalgesia (withdrawal latency), EKC/D injected 1 hour after carrageenan; type: in vivo, rat
Source text: Intraplantar injection of carrageenan induces thermal hyperalgesia accompanying inflammation. To examine induction of thermal hyperalgesia, noxious thermal stimulation was applied to plantar using infrared rays. It can be said that thermal hyperalgesia takes place when the latency period of the withdrawal response becomes shorter than that for untreated rats. In FIG. 5, the vertical axis of the graph indicates the latency period in seconds and the horizontal axis of the graph indicates the time after injection of saline or EKC/D in minutes. The latency period in untreated rats (control) after noxious thermal stimulation was about 21 seconds. When saline (100 μl) was injected at 1 hour after carrageenan injection, the latency period was about 13 seconds. […] This state was sustained for 60 minutes (saline). […] When 10^−5M (1 nmol/100 μl) and 10^−6M ([…]) EKC/D were injected, the latency period before rats responded to noxious thermal stimulation was about 17 seconds, which was longer than that in the case of treatment with saline (EKC/D10^−5 M and EKC/D 10^−6 M).

[4] = test system: scratching behavior and thermal hyperalgesia induced by SP or EKA/B; conditions: Non-patent document 3, cited from earlier work
[5] = test system: formalin-induced pain behavior; experiment: formalin-induced pain behavior (flinching) after intrathecal pre-administration of peptide; type: in vivo, rat
Protocol: In Example 5, 10^−3M (10 nmol/10 μl) D-EKC/D (3), (5), or (7), Spantide I, or saline (10 μl) was administered to intrathecally catheterized rats via catheters and then 4 hours later, 50 μl of 2% formalin was administered subcutaneously to hind paws of rats. The number of flinching (pain behavior) was determined for 60 minutes after formalin administration, so that the degree of pain could be evaluated. During the 10-minute period after formalin administration (referred to as phase I), pain behavior was measured once every 2 minutes (1 minute per measurement). During the period from 10 minutes to 60 minutes after formalin administration (referred to as phase II), pain behavior was measured once every 5 minutes (1 minute per measurement), so that the degree of pain could be evaluated. During phase I, behavior (phasic pain) resulting from chemical stimulation accompanying formalin administration was observed. During phase II, tonic pain following the phasic pain was observed.
The horizontal axis indicates time (minutes) after formalin administration and the vertical axis indicates the measured number of pain behavior per minute.

[6] = test system: carrageenan-induced inflammation; experiment: carrageenan-induced increase in paw size after intrathecal pre-administration of peptide; type: in vivo, rat
Protocol: (§1) In Example 6, 10^−3M (10 nmol/10 μl) D-EKC/D (3), (5), or (7), Spantide I, or saline (10 μl) was administered to intrathecally catheterized rats via catheters. Four hours later, 100 μl of 2% carrageenan (2 mg/100 μl) was subcutaneously administered to rat plantar.
Paw size was measured with time for 60 minutes after carrageenan administration. The paw size (control) before carrageenan administration was designated as the basal level, and the increases in paw size were then calculated.

[7] = test system: carrageenan-induced thermal hyperalgesia; experiment: withdrawal latency to noxious thermal stimulation after carrageenan, intrathecal pre-administration of peptide; type: in vivo, rat; conditions: 10^-3M (10 nmol/10 μl) peptide intrathecal; 2% carrageenan 4 hours later; FIG. 9B
Protocol: as §1
Meanwhile, noxious thermal stimulation was applied to paw plantar using infrared rays at 10-minute intervals after carrageenan administration. The time (latency period) required for withdrawal response to take place was measured. The latency period before untreated rats following noxious thermal stimulation was designated as the control latency period.

## Ala-Tyr-Gln-Leu-Glu-His-Thr-Phe-Gln-Gly-Leu-Leu-NH2 (AYQLEHTFQGLL-NH2; listed as Homo sapiens) [EKC/D]
[1]; 10^-3M (10 nmol/10 μl) peptide intrathecal, 10^-3M SP 30 minutes after peptide, FIG. 1
  number of scratching events induced by substance P, relative to control group (saline+SP = 100%): about 60%
[1]; 10^-3M peptide intrathecal, 10^-3M SP
  duration of suppressive effects on substance P-induced scratching behavior: ≤ 1 h
[1]; 10^-3M peptide intrathecal, SP 1 hour after peptide, FIG. 1
  number of scratching events induced by substance P, relative to control group: restored 1 hour later to the same degree as that for the control group
[2]; 10^-3M EKC/D (100 nmol/100 μl)
  increases in paw size accompanying inflammation due to carrageenan, overall: significantly suppressed
[2]; 10^-3M EKC/D (100 nmol/100 μl), 10 minutes after injection, saline about 50%
  increase in paw size: about 40%
[2]; 10^-3M EKC/D (100 nmol/100 μl), 30 minutes after injection
  increase in paw size: about 20%
[2]; 10^-3M EKC/D (100 nmol/100 μl), 50 minutes after injection
  increase in paw size: about 40%
[2]; 10^-4M EKC/D (10 nmol/100 μl)
  anti-inflammatory effects, overall: weak anti-inflammatory effects
[2]; 10^-4M EKC/D (10 nmol/100 μl), 30 minutes after injection
  increase in paw size: 40%
[2]; 10^-4M EKC/D (10 nmol/100 μl), 60 minutes after injection
  paw size: almost at a normal level
[2]; 10^-5M EKC/D (1 nmol/100 μl)
  effect on paw size: No clear effects
[2]; 10^-6M EKC/D (100 pmol/100 μl)
  effect on paw size: No clear effects
[3]; 10^-3M EKC/D (100 nmol/100 μl), untreated about 21 seconds, saline about 13 seconds
  latency period following noxious thermal stimulation: almost the same as that in the case of untreated rats
[3]; 10^-4M EKC/D (10 nmol/100 μl)
  latency period following noxious thermal stimulation: almost the same tendency as that in the case of 10^−3M EKC/D
[3]; 10^-5M EKC/D (1 nmol/100 μl)
  latency period following noxious thermal stimulation: about 17 seconds
[3]; 10^-6M EKC/D (100 μmol/100 μl)
  latency period following noxious thermal stimulation: about 17 seconds
[3]; 10^-7M EKC/D (10 pmol/100 μl)
  latency period following noxious thermal stimulation: almost the same as that in the case of saline
[4]; 5 minutes after administration of EKC/D
  SP-induced hyperalgesia: suppressed
[4]; intrathecal administration to a rat
  induction of scratching behavior or thermal hyperalgesia by the peptide itself: does not induce
[4]; pre-administration of the peptide, intrathecal
  scratching behavior and thermal hyperalgesia induced by administration of SP or EKA/B: suppresses

## Glu-His-Thr-Phe-Gln-DTrp-Leu-Leu-NH2 (EHTFQXLL; HELM PEPTIDE1{E.H.T.F.Q.[dW].L.L.[am]}$$$$V2.0; N-terminus assumed; SMILES CC(C)C[C@H](NC(=O)[C@H](CC(C)C)NC(=O)[C@@H](Cc1c[nH]c2ccccc12)NC(=O)[C@H](CCC(N)=O)NC(=O)[C@H](Cc1ccccc1)NC(=O)[C@@H](NC(=O)[C@H](Cc1c[nH]cn1)NC(=O)[C@@H](N)CCC(=O)O)[C@@H](C)O)C(N)=O) [D-EKC/D (5)]
[1]; Example 2, FIG. 2, 10^-3M peptide, SP 4 hours after peptide, control about 380 scratching
  scratching behavior induced by substance P: almost never induced
[1]; Example 2, FIG. 2, 10^-3M peptide, interval 8 hours and then 14 hours
  suppressive effects on scratching as administration interval is prolonged: gradually attenuated
[1]; Example 3, FIG. 3, 10^-3M peptide, SP 4 hours after peptide, control 380 scratching
  scratching behavior induced by substance P / suppressive effects: attenuated
[5]; 10^-3M (10 nmol/10 μl) peptide intrathecal, 2% formalin 4 hours later, 0-10 minutes after formalin
  numbers of pain behavior during phase I: significantly decreased
[5]; 10^-3M (10 nmol/10 μl) peptide intrathecal, 2% formalin 4 hours later, 10-60 minutes after formalin
  numbers of pain behavior during phase II: significantly decreased
[5]; 10^-3M intrathecal, formalin 4 hours later
  suppressing effects on formalin-induced pain behavior compared with Spantide I: sustained longer compared with the effects of Spantide I
[6]; 10^-3M (10 nmol/10 μl) peptide intrathecal, 2% carrageenan 4 hours later, FIG. 9A
  rate of increase of paw sizes: significant decreases
[6]; 10^-3M intrathecal, carrageenan 4 hours later
  effects on paw size and withdrawal time compared with Spantide I: sustained to a greater extent than the effects of Spantide I
[7]
  withdrawal time (latency period): significant increases
